For the assay, the target named is T1, Prostaglandin G/H synthase 2 (Ovis aries, UniProt P79208).
T1 sequence (P79208 whole entry): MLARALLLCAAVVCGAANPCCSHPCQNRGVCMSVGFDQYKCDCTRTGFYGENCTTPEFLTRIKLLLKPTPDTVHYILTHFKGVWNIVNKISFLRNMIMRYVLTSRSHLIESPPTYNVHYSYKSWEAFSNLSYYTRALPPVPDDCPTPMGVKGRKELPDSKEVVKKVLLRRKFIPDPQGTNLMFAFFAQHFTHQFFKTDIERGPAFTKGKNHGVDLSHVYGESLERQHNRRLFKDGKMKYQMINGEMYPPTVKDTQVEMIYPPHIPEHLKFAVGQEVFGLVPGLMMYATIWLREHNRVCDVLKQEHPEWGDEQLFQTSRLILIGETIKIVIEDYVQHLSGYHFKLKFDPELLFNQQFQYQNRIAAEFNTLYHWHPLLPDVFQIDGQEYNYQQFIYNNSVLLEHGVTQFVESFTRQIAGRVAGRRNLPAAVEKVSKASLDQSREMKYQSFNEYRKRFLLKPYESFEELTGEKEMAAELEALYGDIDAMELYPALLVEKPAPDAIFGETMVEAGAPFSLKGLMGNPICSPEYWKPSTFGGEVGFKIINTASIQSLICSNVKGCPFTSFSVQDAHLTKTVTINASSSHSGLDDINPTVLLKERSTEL
Put plainly: Inhibition of recombinant ovine COX2 catalytic activity using arachidonic acid as substrate preincubated for 5 mins followed by substrate and hemin addition measured after 2 mins by colorimetric method.

SMILES strings stand for the structures. Bounds are passed on as bounds.

On to `Cc1onc(-c2ccc(Cl)o2)c1-c1ccccc1`, for which the half-maximal inhibitory concentration (IC50) (in general, the concentration that gives 50% inhibition) was over 50 µM.

Turning to `COc1ccc(-c2noc(CC(=O)O)c2-c2ccc(OC)cc2)cc1` [MOFEZOLAC], the IC50 is over 50 µM.
